Calls of active or inactive are those of the source. The calls are words filed in the database; no cut-off is given here.
Experiments:
ZR-75-1 [1] = assay: Antiproliferative activity against human ZR-75-1 cells incubated for 48 to 96 hrs by CCK-8 assay; format: functional, cell-based
[2] = target: Membrane-associated tyrosine- and threonine-specific cdc2-inhibitory kinase (Homo sapiens, UniProt Q99640); assay: Inhibition of recombinant human GST-tagged PKMYT1 (75 to 362 residues) expressed in insect cells using GTDEGIYDVPLLG as substrate preincubated for 15 mins followed by substrate and ATP addition and measured after 1 hr by ADP-Glo kinase assay; design: species or system Insect cell
HCC1569 [3] = assay: Antiproliferative activity against human HCC1569 cells incubated for 48 to 96 hrs by CCK-8 assay; format: functional, cell-based
[4] = target: Epithelial discoidin domain-containing receptor 1 (Homo sapiens, UniProt Q08345); assay: Inhibition of DDR1 (unknown origin)
[5] = AUC(0 to t) in Sprague-Dawley rat at 10 mg/kg, po measured upto 24 hrs by LC-MS/MS analysis; format: ADME, organism-based; conditions: in vivo
[6] = target: Tyrosine-protein kinase Lyn (Homo sapiens, UniProt P07948); assay: Inhibition of Lyn (unknown origin)
Ephrin type-A receptor 1 = Ephrin type-A receptor 1 (Homo sapiens, UniProt P21709); assay: Inhibition of EphA1 (unknown origin)
[7] = Cmax in Sprague-Dawley rat at 10 mg/kg, po measured upto 24 hrs by LC-MS/MS analysis; format: ADME, organism-based; conditions: in vivo
[8] = target: Tyrosine-protein kinase Lck (Homo sapiens, UniProt P06239); assay: Inhibition of LCK (unknown origin)
[9] = target: Cyclin-dependent kinase 2 (Homo sapiens) (UniProt P24941); assay: Inhibition of CDK2 phosphorylation at Tyr15 in human HCC1569 cells at 0.1 to 2 uM after 4 hrs by Western blotting analysis; format: cell-based; conditions: dose 0.1-2 µM
[10] = Clearance in Sprague-Dawley rat at 10 mg/kg, po measured upto 24 hrs by LC-MS/MS analysis; format: ADME, organism-based; conditions: in vivo
HCC1569 [11] = assay: Synergistic cytotoxicity against human HCC1569 cells after 48 to 96 hrs; format: functional, cell-based; conditions: time 48-96 hrs
Wee1-like protein kinase = Wee1-like protein kinase (Homo sapiens, UniProt P30291); assay: Inhibition of recombinant full-length human GST-tagged Wee1 expressed in insect cells using KIGEGTYGVVYKG as substrate preincubated for 15 mins followed by substrate and ATP addition and measured after 1 hr by ADP-Glo kinase assay; design: species or system Insect cell
HCC1569 [12] = assay: Induction of DNA damage in human HCC1569 cells assessed as upregulation of gammaH2AX level after 4 hrs by Western blotting analysis; format: functional, cell-based; conditions: dose 0.1-2 µM
[13] = target: Tyrosine-protein kinase ABL2 (Homo sapiens, UniProt P42684); assay: Inhibition of Arg (unknown origin)
[14] = target: Tyrosine-protein kinase Fgr (Homo sapiens, UniProt P09769); assay: Inhibition of Fgr (unknown origin)
ZR-75-1 [15] = assay: Inhibition of colony formation in human ZR-75-1 cells incubated for 14 days by crystal violet staining based microplate reader assay; format: functional, cell-based; conditions: ZR-75-1, 336 h
[16] = target: Tyrosine-protein kinase Yes (Homo sapiens, UniProt P07947); assay: Inhibition of YES (unknown origin)
HCC1569 [17] = assay: Induction of DNA damage in human HCC1569 cells assessed as upregulation of gammaH2AX level at 2 uM by Western blotting analysis; format: functional, cell-based; conditions: time 0.5-12 hrs, TDE = time-dependent effect
[18] = target: Cyclin-dependent kinase 1 (Homo sapiens) (UniProt P06493); assay: Inhibition of CDK1 phosphorylation at […] in human HCC1569 cells at 2 uM after 0.5 to 12 hrs by Western blotting analysis; format: cell-based; conditions: time 0.5-12 hrs
Ephrin type-B receptor 2 = Ephrin type-B receptor 2 (Homo sapiens, UniProt P29323); assay: Inhibition of EphB2 (unknown origin)
[19] = target: Tyrosine-protein kinase HCK (Homo sapiens, UniProt P08631); assay: Inhibition of HCK (unknown origin)
[20] = target: Cyclin-dependent kinase 1 (Homo sapiens) (UniProt P06493); assay: Inhibition of CDK1 phosphorylation at Thr14 in human HCC1569 cells at 2 uM after 8 to 12 hrs by Western blotting analysis; format: cell-based; conditions: time 8-12 hrs
[21] = target: Tyrosine-protein kinase Blk (Homo sapiens, UniProt P51451); assay: Inhibition of BLK (unknown origin)
Activated CDC42 kinase 1 = Activated CDC42 kinase 1 (Homo sapiens, UniProt Q07912); assay: Inhibition of ACK1 (unknown origin)
[22] = target: Cyclin-dependent kinase 1 (Homo sapiens) (UniProt P06493); assay: Inhibition of CDK1 phosphorylation at Thr14 in human HCC1569 cells after 4 hrs by Western blotting analysis; format: cell-based; conditions: dose 0.1-2 µM
Ephrin type-B receptor 4 = Ephrin type-B receptor 4 (Homo sapiens, UniProt P54760); assay: Inhibition of EphB4 (unknown origin)
[23] = target: Protein-tyrosine kinase 6 (Homo sapiens, UniProt Q13882); assay: Inhibition of BRK (unknown origin)
[24] = target: Proto-oncogene tyrosine-protein kinase Src (Homo sapiens, UniProt P12931); assay: Inhibition of cSRC (unknown origin)
HCC1569 [25] = assay: Induction of DNA damage in human HCC1569 cells assessed as upregulation of gammaH2AX level at 62.5 to 500 nM after 48 hrs in presence of gemcitabine by Western blotting analysis; format: functional, cell-based; conditions: dose 62.5-500 nM
Ephrin type-B receptor 1 = Ephrin type-B receptor 1 (Homo sapiens, UniProt P54762); assay: Inhibition of EphB1 (unknown origin)
HCC1569 [26] = assay: Inhibition of colony formation in CCNE1-amplified human HCC1569 cells incubated for 14 days by crystal violet staining based microplate reader assay; format: functional, cell-based; conditions: HCC1569, 336 h

Cyclin-dependent kinase 1 (Homo sapiens), sequence (P06493 whole entry, looked up): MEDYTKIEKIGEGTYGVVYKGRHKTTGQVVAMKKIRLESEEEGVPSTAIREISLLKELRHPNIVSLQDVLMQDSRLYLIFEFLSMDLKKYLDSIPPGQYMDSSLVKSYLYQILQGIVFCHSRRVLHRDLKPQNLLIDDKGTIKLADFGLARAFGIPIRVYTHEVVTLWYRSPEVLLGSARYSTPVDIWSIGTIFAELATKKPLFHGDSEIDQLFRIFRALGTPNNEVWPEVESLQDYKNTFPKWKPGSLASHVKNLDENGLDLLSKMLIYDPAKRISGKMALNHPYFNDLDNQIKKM
Membrane-associated tyrosine- and threonine-specific cdc2-inhibitory kinase, sequence (Q99640 whole entry, the tested form may be a part): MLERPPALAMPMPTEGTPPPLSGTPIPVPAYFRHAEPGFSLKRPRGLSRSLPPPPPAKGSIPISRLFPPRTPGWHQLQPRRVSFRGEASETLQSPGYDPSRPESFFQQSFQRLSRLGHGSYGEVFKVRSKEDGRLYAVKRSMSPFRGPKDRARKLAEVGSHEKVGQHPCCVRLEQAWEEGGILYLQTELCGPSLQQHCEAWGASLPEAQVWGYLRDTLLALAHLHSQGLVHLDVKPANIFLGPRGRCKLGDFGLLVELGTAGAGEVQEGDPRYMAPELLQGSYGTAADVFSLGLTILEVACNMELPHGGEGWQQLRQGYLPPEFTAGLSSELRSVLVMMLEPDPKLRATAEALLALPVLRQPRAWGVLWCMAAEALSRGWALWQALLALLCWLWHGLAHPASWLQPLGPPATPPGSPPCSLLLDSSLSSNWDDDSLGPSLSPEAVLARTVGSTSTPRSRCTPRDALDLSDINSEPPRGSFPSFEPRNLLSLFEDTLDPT
Ephrin type-B receptor 4, sequence (P54760 whole entry): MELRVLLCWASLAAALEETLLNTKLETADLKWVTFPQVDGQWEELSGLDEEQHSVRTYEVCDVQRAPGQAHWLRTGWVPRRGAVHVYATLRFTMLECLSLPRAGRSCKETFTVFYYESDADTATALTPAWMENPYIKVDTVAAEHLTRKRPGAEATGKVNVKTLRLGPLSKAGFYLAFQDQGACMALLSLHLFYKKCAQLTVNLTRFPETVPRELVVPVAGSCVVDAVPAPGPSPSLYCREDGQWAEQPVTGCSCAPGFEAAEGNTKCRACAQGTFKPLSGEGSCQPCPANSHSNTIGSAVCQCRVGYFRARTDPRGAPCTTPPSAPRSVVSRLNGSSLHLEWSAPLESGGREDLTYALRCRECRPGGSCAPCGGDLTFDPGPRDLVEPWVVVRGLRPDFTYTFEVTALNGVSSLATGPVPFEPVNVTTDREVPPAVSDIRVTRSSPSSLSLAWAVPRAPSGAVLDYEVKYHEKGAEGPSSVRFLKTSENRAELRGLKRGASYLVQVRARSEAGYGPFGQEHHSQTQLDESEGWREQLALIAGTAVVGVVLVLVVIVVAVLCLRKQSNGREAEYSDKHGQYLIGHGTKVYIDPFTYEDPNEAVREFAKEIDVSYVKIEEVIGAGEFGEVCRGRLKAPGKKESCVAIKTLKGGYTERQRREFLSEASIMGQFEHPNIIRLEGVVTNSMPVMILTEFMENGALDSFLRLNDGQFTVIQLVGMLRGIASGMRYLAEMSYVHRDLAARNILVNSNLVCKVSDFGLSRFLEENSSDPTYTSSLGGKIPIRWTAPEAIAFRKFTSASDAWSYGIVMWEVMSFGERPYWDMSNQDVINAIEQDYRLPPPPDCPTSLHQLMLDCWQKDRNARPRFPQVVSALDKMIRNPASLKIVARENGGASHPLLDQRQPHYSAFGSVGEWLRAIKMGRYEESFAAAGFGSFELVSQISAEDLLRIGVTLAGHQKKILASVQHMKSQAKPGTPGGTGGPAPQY
Ephrin type-B receptor 2, sequence (P29323 whole entry): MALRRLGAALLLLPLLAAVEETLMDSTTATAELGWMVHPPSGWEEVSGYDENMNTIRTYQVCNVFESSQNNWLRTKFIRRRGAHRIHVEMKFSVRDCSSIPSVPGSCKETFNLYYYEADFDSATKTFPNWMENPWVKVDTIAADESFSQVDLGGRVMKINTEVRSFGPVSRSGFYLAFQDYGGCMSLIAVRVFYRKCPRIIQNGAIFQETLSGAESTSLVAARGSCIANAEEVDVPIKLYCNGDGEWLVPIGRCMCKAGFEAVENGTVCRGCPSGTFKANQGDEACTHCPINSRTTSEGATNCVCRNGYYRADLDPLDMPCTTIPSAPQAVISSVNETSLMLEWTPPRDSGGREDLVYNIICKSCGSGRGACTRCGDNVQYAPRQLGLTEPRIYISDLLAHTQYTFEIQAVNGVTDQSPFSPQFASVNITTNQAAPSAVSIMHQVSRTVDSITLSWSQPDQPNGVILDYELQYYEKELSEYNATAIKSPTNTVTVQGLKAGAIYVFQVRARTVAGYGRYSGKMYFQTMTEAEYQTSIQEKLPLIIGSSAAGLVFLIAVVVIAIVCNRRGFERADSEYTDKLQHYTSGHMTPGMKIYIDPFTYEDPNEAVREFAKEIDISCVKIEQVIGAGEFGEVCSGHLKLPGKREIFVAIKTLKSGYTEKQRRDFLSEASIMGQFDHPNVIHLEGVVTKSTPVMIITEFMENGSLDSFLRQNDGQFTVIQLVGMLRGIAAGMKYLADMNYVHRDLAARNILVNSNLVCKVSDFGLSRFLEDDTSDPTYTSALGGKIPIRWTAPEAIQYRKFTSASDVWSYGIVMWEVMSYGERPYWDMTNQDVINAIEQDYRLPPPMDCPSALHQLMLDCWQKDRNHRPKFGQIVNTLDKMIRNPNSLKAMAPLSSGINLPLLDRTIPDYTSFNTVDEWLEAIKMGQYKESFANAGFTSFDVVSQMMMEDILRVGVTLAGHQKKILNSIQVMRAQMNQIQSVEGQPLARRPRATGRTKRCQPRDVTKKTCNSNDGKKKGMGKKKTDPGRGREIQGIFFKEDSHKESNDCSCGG
Tyrosine-protein kinase HCK, sequence (P08631 whole entry): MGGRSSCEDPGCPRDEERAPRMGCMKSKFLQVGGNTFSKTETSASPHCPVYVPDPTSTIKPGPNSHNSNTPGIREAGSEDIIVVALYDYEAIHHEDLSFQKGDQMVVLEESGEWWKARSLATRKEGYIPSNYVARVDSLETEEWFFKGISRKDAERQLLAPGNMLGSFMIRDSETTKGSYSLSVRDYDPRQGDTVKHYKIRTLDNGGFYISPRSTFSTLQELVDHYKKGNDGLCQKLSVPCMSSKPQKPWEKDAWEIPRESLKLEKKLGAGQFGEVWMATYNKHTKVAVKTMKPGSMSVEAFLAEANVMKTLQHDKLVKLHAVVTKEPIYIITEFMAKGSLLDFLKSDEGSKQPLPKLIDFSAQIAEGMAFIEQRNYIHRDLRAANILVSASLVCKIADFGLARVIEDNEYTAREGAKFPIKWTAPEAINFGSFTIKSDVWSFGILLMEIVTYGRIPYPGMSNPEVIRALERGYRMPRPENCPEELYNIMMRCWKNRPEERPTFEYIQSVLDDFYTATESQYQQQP
Wee1-like protein kinase, sequence (P30291 whole entry): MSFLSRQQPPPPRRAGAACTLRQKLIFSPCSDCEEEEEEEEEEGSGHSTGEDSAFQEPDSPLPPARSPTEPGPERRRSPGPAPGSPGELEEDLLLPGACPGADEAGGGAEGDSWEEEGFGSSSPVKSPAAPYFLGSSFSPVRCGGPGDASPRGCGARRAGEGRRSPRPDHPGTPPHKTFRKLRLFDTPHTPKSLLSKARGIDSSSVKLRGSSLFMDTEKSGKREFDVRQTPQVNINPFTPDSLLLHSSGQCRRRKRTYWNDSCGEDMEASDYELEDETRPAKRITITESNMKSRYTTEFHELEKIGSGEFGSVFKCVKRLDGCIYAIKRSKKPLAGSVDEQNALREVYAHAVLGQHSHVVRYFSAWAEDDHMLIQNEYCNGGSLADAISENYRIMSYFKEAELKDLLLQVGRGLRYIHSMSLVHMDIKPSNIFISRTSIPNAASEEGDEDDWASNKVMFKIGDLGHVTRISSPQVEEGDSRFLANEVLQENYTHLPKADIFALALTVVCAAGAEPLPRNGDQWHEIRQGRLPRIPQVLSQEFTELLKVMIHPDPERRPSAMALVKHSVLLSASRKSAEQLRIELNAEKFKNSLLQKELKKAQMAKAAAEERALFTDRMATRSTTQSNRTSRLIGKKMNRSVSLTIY
Tyrosine-protein kinase Fgr, sequence (P09769 whole entry): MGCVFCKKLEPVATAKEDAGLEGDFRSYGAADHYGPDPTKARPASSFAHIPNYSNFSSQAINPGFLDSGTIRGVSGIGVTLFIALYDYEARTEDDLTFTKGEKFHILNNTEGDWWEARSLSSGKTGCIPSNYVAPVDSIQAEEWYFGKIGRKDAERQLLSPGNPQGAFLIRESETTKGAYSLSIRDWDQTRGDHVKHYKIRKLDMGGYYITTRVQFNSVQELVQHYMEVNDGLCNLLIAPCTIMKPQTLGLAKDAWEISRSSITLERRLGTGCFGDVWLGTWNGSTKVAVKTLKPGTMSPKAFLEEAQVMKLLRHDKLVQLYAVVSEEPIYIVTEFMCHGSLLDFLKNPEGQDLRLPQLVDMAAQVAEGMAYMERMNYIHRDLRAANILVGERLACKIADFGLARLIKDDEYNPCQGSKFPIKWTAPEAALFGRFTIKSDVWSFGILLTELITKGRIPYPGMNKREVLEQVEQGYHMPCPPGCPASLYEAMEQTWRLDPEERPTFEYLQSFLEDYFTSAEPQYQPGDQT
Protein-tyrosine kinase 6, sequence (Q13882 whole entry): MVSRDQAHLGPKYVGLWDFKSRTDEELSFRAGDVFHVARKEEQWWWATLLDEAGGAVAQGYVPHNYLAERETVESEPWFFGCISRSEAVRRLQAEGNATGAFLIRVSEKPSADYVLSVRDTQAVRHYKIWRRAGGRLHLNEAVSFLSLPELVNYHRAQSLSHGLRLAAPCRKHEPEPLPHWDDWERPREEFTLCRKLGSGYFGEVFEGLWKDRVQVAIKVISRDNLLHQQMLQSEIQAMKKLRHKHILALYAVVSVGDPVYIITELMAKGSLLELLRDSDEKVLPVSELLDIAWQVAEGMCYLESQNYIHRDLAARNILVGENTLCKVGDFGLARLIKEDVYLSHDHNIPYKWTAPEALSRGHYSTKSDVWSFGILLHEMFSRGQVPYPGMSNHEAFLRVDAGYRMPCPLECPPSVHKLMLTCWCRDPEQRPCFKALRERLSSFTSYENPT

Compound `Cc1ccc(O)c(C)c1-c1cc(-c2ccncc2)cc(C(N)=O)c1N` has an IC50 (ZR-75-1 [1]) of 11600 nM, an IC50 [2] of 101 nM and an IC50 (HCC1569 [3]) of 770 nM.

Compound `Cc1ccc(O)c(C)c1-c1cc(-c2ccnc(OC3CCNCC3)c2)cc(C(N)=O)c1N` has an IC50 (ZR-75-1 [1]) of over 20000 nM and an IC50 (HCC1569 [3]) of 3840 nM.

Compound `Cc1ccc(O)c(C)c1-c1cc(-c2ccnc(N3CCNCC3)c2)cc(C(N)=O)c1N` has an IC50 (ZR-75-1 [1]) of over 20000 nM and an IC50 (HCC1569 [3]) of 1390 nM.

In the case of `Cc1ccc(O)c(C)c1-c1cc(-c2ccnc(N3CCOCC3)c2)cc(C(N)=O)c1N`, the IC50 (ZR-75-1 [1]) is reported as over 20000 nM and the IC50 (HCC1569 [3]) is reported as 1840 nM.

`CN[C@@H]1CCN(c2cc(-c3cc(C(N)=O)c(N)c(-c4c(C)ccc(O)c4C)c3)ccn2)C1` gave an IC50 (ZR-75-1 [1]) of 5600 nM and an IC50 (HCC1569 [3]) of 470 nM.

In the case of `Cc1ccc(O)c(C)c1-c1cc(-c2cc(OC(F)F)nc(N3CC[C@@H](N)C3)c2)cc(C(N)=O)c1N`, the IC50 (ZR-75-1 [1]) is reported as 4150 nM and the IC50 (HCC1569 [3]) is reported as 800 nM.

`Cc1ccc(O)c(C)c1-c1cc(-c2ccnc(OCCCN)c2)cc(C(N)=O)c1N` showed an IC50 (ZR-75-1 [1]) of 15400 nM and an IC50 (HCC1569 [3]) of 9480 nM.

`Cc1ccc(O)c(C)c1-c1cc(-c2cc(F)nc(N3CC[C@@H](N)C3)c2)cc(C(N)=O)c1N` showed an IC50 [4] of 10.6 nM, an AUCt [5] of 6.51 ng·h/mL and an IC50 [6] of 18.3 nM. The IC50 (Ephrin type-A receptor 1) was 110 nM, the Cmax [7] was 6.17 ng/mL and the IC50 [8] was 14.5 nM. The inhibition [9] was “inactive”, the CL [10] was 92.17 mL/min/kg and the Activity (HCC1569 [11]) was “Active”. The IC50 (Wee1-like protein kinase) was 8200 nM, the Activity (HCC1569 [12]) was “Dose-Dependent Effect” and the IC50 [13] was 10.9 nM. For the same compound, the IC50 [14] was 9.3 nM, the EC50 (ZR-75-1 [15]) was over 5000 nM and the IC50 [16] was over 1000 nM. For the same compound, the IC50 (ZR-75-1 [1]) was 4960 nM, the Activity (HCC1569 [17]) was “Tde” and the inhibition [18] was “inactive”. For the same compound, the IC50 (Ephrin type-B receptor 2) was 27.2 nM, the IC50 [2] was 16.5 nM and the IC50 [19] was 48.6 nM. The inhibition [20] was 100%, the IC50 [21] was 60.1 nM and the IC50 (Activated CDC42 kinase 1) was 268 nM. For the same compound, the inhibition [22] was “Dose-Dependent Effect”, the IC50 (Ephrin type-B receptor 4) was 134 nM and the IC50 (HCC1569 [3]) was 250 nM. For the same compound, the IC50 [23] was 8 nM, the IC50 [24] was 9.9 nM and the Activity (HCC1569 [25]) was “Active”. It also gave an IC50 (Ephrin type-B receptor 1) of 41.6 nM and an EC50 (HCC1569 [26]) of 117 nM.

With `Cc1ccc(O)c(C)c1-c1cc(-c2ccnc(N3CCCNCC3)c2)cc(C(N)=O)c1N` the IC50 (ZR-75-1 [1]) was 4830 nM and the IC50 (HCC1569 [3]) was 290 nM.

With `Cc1ccc(O)c(C)c1-c1cc(-c2ccnc(N3CC[C@@H](N)C3)c2)cc(C(N)=O)c1N` the IC50 (ZR-75-1 [1]) was 8490 nM and the IC50 (HCC1569 [3]) was 290 nM.

`Cc1ccc(O)c(C)c1-c1cc(-c2ccnc(OC[C@H]3CCNC3)c2)cc(C(N)=O)c1N` gave an IC50 (ZR-75-1 [1]) of 8530 nM and an IC50 (HCC1569 [3]) of 2190 nM.

`Cc1ccc(O)c(C)c1-c1cc(-c2ccnc(OC[C@@H]3CCCN3)c2)cc(C(N)=O)c1N` showed an IC50 (ZR-75-1 [1]) of 7120 nM and an IC50 (HCC1569 [3]) of 1180 nM.

In the case of `Cc1ccc(O)c(C)c1-c1cc(-c2ccnc(N3CC[C@H](N)C3)c2)cc(C(N)=O)c1N`, the IC50 (ZR-75-1 [1]) is reported as over 20000 nM and the IC50 (HCC1569 [3]) is reported as 1650 nM.

`Cc1ccc(O)c(C)c1-c1cc(-c2ccnc(N3C[C@@H]4C[C@H]3CN4)c2)cc(C(N)=O)c1N` gave an IC50 (ZR-75-1 [1]) of over 20000 nM and an IC50 (HCC1569 [3]) of 7780 nM.

For `Cc1ccc(O)c(C)c1-c1cc(-c2ccnc(N3C4CNCC3C4)c2)cc(C(N)=O)c1N`, the IC50 (ZR-75-1 [1]) was over 20000 nM and the IC50 (HCC1569 [3]) was over 20000 nM.

In the case of `Cc1ccc(O)c(C)c1-c1cc(-c2ccnc(OCCN)c2)cc(C(N)=O)c1N`, the IC50 (ZR-75-1 [1]) is reported as 4400 nM and the IC50 (HCC1569 [3]) is reported as 1660 nM.

In the case of `CNCCCOc1cc(-c2cc(C(N)=O)c(N)c(-c3c(C)ccc(O)c3C)c2)ccn1`, the IC50 (ZR-75-1 [1]) is reported as over 20000 nM and the IC50 (HCC1569 [3]) is reported as 2490 nM.

Source: ChEMBL document CHEMBL5584337, “Structure-Based Drug Design of 2-Amino-[1,1'-biphenyl]-3-carboxamide Derivatives as Selective PKMYT1 Inhibitors for the Treatment of CCNE1-Amplified Breast Cancer” (J Med Chem, 2024)
